In one series the test system is MDA-MB-231 tumor. Kind of series: Kinetics of CAR-T cell expansion and tumor uptake in vivo. Also noted: species or system NSG mice. The settings on record: ~4.8 million EGFRt-sorted E2-CAR-T cells day 0, EC17 500 nmol/kg weekly i.v. As to the method: (§1) All animal care and use were performed according to NIH guidelines and in compliance with protocols approved by the Purdue University Animal Use and Care Committee. Female 4 to 5-weeks-old NOD/SCID gamma (NSG™) mice (stock number: 005557) were purchased from The Jackson Laboratory (Bar Harbor, ME). Unless specifically indicated, all animals were maintained on a FA-deficient diet (TestDiet, St. Louis, MO) upon arrival and throughout the study. To establish subcutaneous xenografts, MDA-MB-231 and HOS-FRα were implanted in the right flank region at 2.5 × 10^6 and 1 × 10^6 cells per animal, respectively. For intravenous xenografts, THP1-FRβ cells were inoculated at 5 × 10^6 cells per animal. Subcutaneous tumors were measured 2–3 times per week with a caliper and calculated using the ellipsoidal formula (length x width^2)/2. […] All animal doses (CAR-T cells, EC17, sodium fluorescein) were given intravenously.
To study CAR-T cell expansion in vivo, we started with 15 MDA-MB-231 tumor bearing mice having ~4.8 million EGFRt-sorted E2-CAR-T cells (1:1 CD4/CD8) injected on day 0. […] For each collection, fresh blood and tumor samples (if available) were analyzed for the presence of human CD3ε+ EGFRt+ CAR-T cells by flow cytometry. Moreover, we analyzed phenotypic changes of E2-CAR-T cells in the circulation (TSCM, TCM, TEM, and TEFF) and the activation status of tumor-infiltrating CAR-T cells (i.e., CD137/4-1BB, PD1).
For CAR-T cell analysis in the circulation, plasma was removed from a predetermined volume of whole blood collected into tubes containing ethylenediaminetetraacetic acid anticoagulant. […] A minimum of 20,000 propidium iodide negative live cell events were collected on the Gallios flow cytometer and analyzed with the Kaluza software, version 2.1 (Beckman Coulter, Brea, CA). CAR-positive T cells were identified in mouse blood as human CD3ε+ EGFRt+ events and absolute numbers per volume of blood were calculated using equal numbers of CountBright™ beads (Invitrogen, Carlsbad, CA) added to each sample. […]

For another series, the system named is HOS-FRα tumors. Kind of series: Osteosarcoma study, subcutaneous xenografts, EC17 dose escalation. In kind it is in vivo. As to the method:
as §1
For osteosarcoma study, two cohorts of mice were subcutaneously implanted with HOS-FRα tumor cells 3 days prior to receiving ~6 million of the same CAR-T cell preparation used in the THP1-FRβ study. At ~3.5 days post CAR-T cell infusion, one cohort of mice was given up to 3 cycles of EC17 at 5/10/100 nmol/kg in Cycle 1, 5/30/300 nmol/kg in Cycle 2, and 5/50/500 nmol/kg in Cycle 3, all following the Monday/Thursday/Monday regimen with a 6 day break in-between cycles. At the end of study, circulating CD3ε+ EGFRt+ CAR-T cells per 100 μL of mouse blood were enumerated. HOS-FRα tumors (+/- EC17 treatment) were also harvested and digested for flow cytometric analysis of tumor-infiltrating CAR-T cells.
Depending on the CAR-T cell dose and how EC17 is administered, tumor-bearing mice receiving FITC-specific CAR-T cells can experience severe CRS and varying degrees of body weight loss ([27], [33], [34]). Therefore, we developed a CRS grading system (0–5 scale) to empirically assess CRS toxicity from animals' gross morphology and social behavior to allow for better timing of CRS rescue. While grades 0 and 5 indicated normal (no CRS) or death (due to severe CRS), respectively, grades 1, 2, and 3–4 were considered mild, light-to-moderate, and severe CRS. In addition, all EC17 doses were intentionally given toward the end of any given day to allow potential CRS symptoms to develop overnight. On the days immediately following each EC17 dose, animals were scored and rescue agents such as sodium fluorescein, folic acid and leucovorin were used to mitigate CRS toxicity ([33]). In this particular instance, a batch of E2-CAR-T cells with a high EGFRt+ CD4/CD8 ratio (~93:7) was given to HOS-FRα tumor-bearing mice at a mixture of ~2.5 million CD8 and ~33 million CD4 on day 0. […]

On to `Nc1nc2ncc(CNc3ccc(C(=O)NC(CCC(=O)NCCNC(=S)Nc4ccc(-c5c6ccc(=O)cc-6oc6cc(O)ccc56)c(C(=O)O)c4)C(=O)O)cc3)nc2c(=O)[nH]1` (stereo not shown) [EC17, FA-(γ)-ethylenediamine-FITC], for which the “time of peak of circulating CAR-T cells” value in the series with MDA-MB-231 tumor was about 15 days. In addition, the tumor response entry in the series with MDA-MB-231 tumor (smaller tumors) is “started to respond after the second EC17 dose”. The “persistence of circulating CAR-T cells” value in the series on MDA-MB-231 tumor (last analysis by flow cytometry) was “up to 30 days”. Also, the “safety (CRS, body weight)” value in the series on HOS-FRα tumors (EC17 M/Th/M escalation 5/10/100, 5/30/300, 5/50/500 nmol/kg, ~6 million E2-CAR-T cells) is “no CRS or body weight loss”. The tumor growth entry in the series with HOS-FRα tumors (EC17 M/Th/M escalation, within the first two cycles, ~6 million E2-CAR-T cells) is given as “significant delay in tumor growth”. Also, the cures result in the series with HOS-FRα tumors (HOS-FRα xenografts, EC17 plus E2-CAR-T cells) is given as “no cures”. For the same compound, the “intratumoral CD3ε+ EGFRt+ CAR-T cell population” value with HOS-FRα tumors (day 33, EC17-treated animals) is given as ~ 1 % total viable digested tumor-derived cells.
